{
  "source": "patent US10548984B2",
  "about": "(priority 2015, dated 2020)",
  "key": {"[1]": {"system": "nAchRs present on M17 cells", "test": "Competitive binding assay and immunocytochemistry of biotinylated peptide on M17 cells", "set-up": "species or system human", "settings": "avidin-FITC", "procedure": "To confirm that the binding specificity of the peptide to the neuronal cells was mediated by its binding to nAchRs, a competition assay was performed using alpha bangarotoxin (BTX) peptide, which is a competitive antagonist for nAchRs.\nM17 cells were incubated with the biotinylated-peptide (SEQ ID NO:2) (2.5 μM) in the absence or presence of BTX peptide (0.01 μM or 0.1 μM) at 4° C. for 1 hr, stained with avidin-FITC and analyzed by FACS.\nImmunocytochemistry was used to confirm the binding of the peptide (SEQ ID NO:2) to M17 cells. M17 cells were incubated with or without biotinylated-peptides (SEQ ID NO:2) or with the MAT peptide which served as a negative control. The cells were then stained with avidin-FITC and viewed by fluorescence microscopy."}, "mice [2]": {"system": "mice", "test": "Immunogenicity study (serum antibody ELISA)", "type": "in vivo, mouse", "settings": "i.v. injection", "procedure": "Mice were injected intravenously with 50 μg of siRNA complexed with either the Test-Peptide or Test-RI Peptide vectors, with the peptide vector alone or with PBS as negative control for three consecutive days, and then on every alternate day for 14 days. […] To detect the presence of antibodies to the Test-Peptide or Test-RI-peptide, serum was collected from the mice on day 21 and serial double dilution (1:100 followed by 10 dilutions) of the sera was incubated in 384 well microtitre plate coated with either Test-Peptide or Test-RI-peptide (50 ng/well). The bound antibody was detected with a goat anti-mouse Ig-HRP conjugate."}, "mice [3]": {"system": "mice", "settings": "mouse, in vivo"}},
  "note": "Non-standard residues stand in square brackets, D forms with d. Residues, ends and D or L forms follow the SMILES beside them.",
  "data": [
    {"molecule": "CDIFTNSRGK [peptide (SEQ ID NO:2), RVG derived 10 residue peptide]", "values": [
      {"measurement": "binding of peptide to M17 cells (FITC-positive immunostaining)", "setting": "[1]; biotinylated peptide, fluorescence microscopy", "result": "binds specifically to neuronal cells"}
    ]},
    {"molecule": "CC[C@H](C)[C@H](NC(=O)[C@H](CC(=O)O)NC(=O)[C@@H](N)CS)C(=O)N[C@@H](Cc1ccccc1)C(=O)N[C@H](C(=O)N[C@@H](CC(N)=O)C(=O)N[C@@H](CO)C(=O)N[C@@H](CCCNC(=N)N)C(=O)NCC(=O)N[C@@H](CCCCN)C(=O)NCC(=O)NCC(=O)NCC(=O)NCC(=O)N[C@H](CCCNC(=N)N)C(=O)N[C@H](CCCNC(=N)N)C(=O)N[C@H](CCCNC(=N)N)C(=O)N[C@H](CCCNC(=N)N)C(=O)N[C@H](CCCNC(=N)N)C(=O)N[C@H](CCCNC(=N)N)C(=O)N[C@H](CCCNC(=N)N)C(=O)N[C@H](CCCNC(=N)N)C(=O)N[C@H](CCCNC(=N)N)C(=O)O)[C@@H](C)O", "note": "[Test-peptide] (H-CDIFTNSRGKGGGG[dR][dR][dR][dR][dR][dR][dR][dR][dR]-OH; C-terminus assumed)", "values": [
      {"measurement": "antibody response", "setting": "mice [2]", "result": "did not elicit an antibody response"},
      {"measurement": "production of inflammatory cytokines", "setting": "mice [3]", "result": "did not elicit an antibody response or result in the production inflammatory cytokines"}
    ]},
    {"molecule": "alpha bangarotoxin [BTX, reference compound]", "values": [
      {"measurement": "inhibition of biotinylated-peptide (SEQ ID NO:2) binding to M17 cells", "setting": "[1]; peptide 2.5 μM, BTX 0.01 μM or 0.1 μM, 4° C., 1 hr, FACS", "result": "inhibited peptide binding to M17 cells in a dose-dependent manner"}
    ]},
    {"molecule": "CC[C@@H](C)[C@@H](NC(=O)[C@@H](Cc1ccccc1)NC(=O)[C@H](NC(=O)[C@@H](CC(N)=O)NC(=O)[C@@H](CO)NC(=O)[C@@H](CCCNC(=N)N)NC(=O)CNC(=O)[C@@H](CCCCN)NC(=O)CN(C)C(=O)CN(C)C(=O)CN(C)C(=O)CN(C)C(=O)[C@@H](CCCNC(=N)N)NC(=O)[C@@H](CCCNC(=N)N)NC(=O)[C@@H](CCCNC(=N)N)NC(=O)[C@@H](CCCNC(=N)N)NC(=O)[C@@H](CCCNC(=N)N)NC(=O)[C@@H](CCCNC(=N)N)NC(=O)[C@@H](CCCNC(=N)N)NC(=O)[C@@H](CCCNC(=N)N)NC(=O)[C@H](N)CCCNC(=N)N)[C@H](C)O)C(=O)N[C@H](CC(=O)O)C(=O)N[C@H](CS)C(=O)O", "note": "[Test-RI-peptide, H-rrrrrrrrr-Sar-Sar-Sar-Sar-kGrsntfidc]", "values": [
      {"measurement": "antibody response", "setting": "mice [2]", "result": "did not elicit an antibody response"},
      {"measurement": "production of inflammatory cytokines", "setting": "mice [3]", "result": "did not elicit an antibody response or result in the production inflammatory cytokines"}
    ]}
  ]
}
